In patent US20010009913A1, “Anxiety method” (priority 1999, published 2001):
“Also recorded” adds a separate entry of the source. Like-named read-outs stand apart in the source and are kept apart here.

Key:
CYP3A4 = test: Inhibition of the metabolism of buspirone by ketoconazole in pooled HLM; settings: ketoconazole concentrations up to 0.125 μM
[1] = Gammans et al. 1986; cited from earlier work
dorsal raphe neurons [2] = settings: VanderMaelen et al. 1986; cited from earlier work
[3] = Human pharmacokinetic study, oral buspirone BID for 25 days
rat pups = test: Rat pup isolation-induced ultrasonic vocalization test (vocalization and locomotor activity); format: in vivo; settings: sc, 30 min prior to test; for ID50, dose predicted to reduce the number of ultrasonic calls by 50%: 9-11 day old rat pups, cold plate
Description: Ultrasonic vocalizations emitted by rat pups following isolation from their mother and littermates and subjected to a variety of environmental stimuli (e.g., cold temperature) has proven to be a sensitive method for assessing potential anxiolytic and anxiogenic compounds (Winslow and Insel, 1991, Psychopharmacology, 105:513-520). Psychoactive compounds purported to be anxiolytic suppress the frequency of ultrasonic calls whereas, calls are increased by drugs with anxiogenic properties. More importantly, the isolation-induced ultrasonic vocalization paradigm appears to be most sensitive for detecting anxiolytic properties across a broad spectrum of drug classes such as benzodiazepines, 5-HT reuptake inhibitors, 5-HT1A agonists as well as NMDA antagonists.
Harlan Sprague-Dawley rat pups (male and female) were housed in polycarbonate cages with the dam until 9-11 days old. Thirty minutes before testing, pups were removed from the dam, placed into a new cage with a small amount of home bedding and brought into the lab and placed under a light to maintain body temperature at 37° C. Pups were then weighed, sexed, marked and returned to the litter group until behavioral assessment. Testing took place in a Plexiglas recording chamber that contained a metal plate maintained at (18-20° C.) with a 5×5 cm grid drawn on the plate. A microphone was suspended 10 cm above the plate to record ultrasonic vocalizations. Ultrasonic calls were recorded using the Noldus UltraVox system providing on-line analysis of the frequency and duration of calls. The number of grid cells entered by the pup was also collected by visual scoring. […] Immediately following the collection of the baseline measures, pups were injected with vehicle or drug subcutaneously at the nape of the neck and returned to its littermates. […] Baseline differences and percent change from baseline for the frequency of ultrasonic vocalizations and grid cell crossings were analyzed using a one-way ANOVA. […]

human 5-HT1A receptor = molecular target: T1, human 5-HT1A receptor (Homo sapiens, UniProt P08908); test: 5-HT1A receptor binding assay; settings: for Ki: read-out: K1 value
T1 construct: expressed in transfected cells; host or cells: HEK293 cells
T1 sequence (P08908 1-422): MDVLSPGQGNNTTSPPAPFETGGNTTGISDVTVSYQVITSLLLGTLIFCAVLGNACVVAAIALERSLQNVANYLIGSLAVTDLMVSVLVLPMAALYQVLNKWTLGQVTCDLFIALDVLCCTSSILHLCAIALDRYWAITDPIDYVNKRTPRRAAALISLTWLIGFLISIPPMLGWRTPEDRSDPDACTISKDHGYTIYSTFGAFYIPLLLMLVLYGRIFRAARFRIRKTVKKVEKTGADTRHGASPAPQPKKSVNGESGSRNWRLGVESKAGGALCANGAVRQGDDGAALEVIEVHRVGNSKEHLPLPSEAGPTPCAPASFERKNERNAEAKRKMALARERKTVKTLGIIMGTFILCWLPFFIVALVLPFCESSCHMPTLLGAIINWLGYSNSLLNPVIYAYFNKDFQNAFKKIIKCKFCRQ
Procedure: Membranes are prepared for binding using the human 5-HT1A receptor expressed in HEK293 cells. Cells are collected and ruptured using a dounce homogenizer. The cells are spun at 18000xg for 10 minutes and the pellet is resuspended in assay buffer, frozen in liquid nitrogen and kept at −80° C. until the day of the assay.
A total of 30 ug protein is used per well. The assay is carried out in 96-deep-well plates. The assay buffer is 50 mM HEPES containing 2.5 mM MgCl2 and 2 mM EGTA. […] 10 mM serotonin serves as blocking agent to determine non-specific binding. The reaction is terminated by the addition of 1 ml of ice cold 50 mM HEPES buffer and rapid filtration through a Brandel Cell Harvester using Whatman GF/B filters. The filter pads are counted in an LKB Trilux liquid scintillation counter. IC50 values are determined using non-linear regression by Excel-fit.

dorsal raphe neurons [4] = test: Inhibition of dorsal raphe neuronal firing after systemic administration; format: in vivo; settings: previous in-house testing, I.V. and intragastric, rats
Description: See: VanderMaelen, et al., Eur. J. Pharmacol., 129, pp. 123-30, 1986. While one metabolite, the structural fragment 1-(2-pyrimidinyl)piperazine, also known as 1-PP, [drawing 3]

[5] = Modified Vogel Conflict test; format: in vivo; settings: earlier in-house testing
Description: Earlier in-house functional testing of BMY 28674 utilized an in vivo test method based on modification of the Vogel Conflict test, a simple reliable conflict procedure for testing antianxiety agents (see: Vogel, et al., Psychopharmacologia, (Berl.) 21, pp.1-7, 1971). […] No useful antianxiety activity has been ascribed to BMY 28674 previously.

[6] = membranes of HEK293 cells, 1 nM 3H-8-OH-DPAT, read-out: IC50
[7] = membranes of HEK293 cells, 1 nM 3H-8-OH-DPAT

For `CC(=O)N1CCN(c2ccc(OCC3COC(Cn4ccnc4)(c4ccc(Cl)cc4Cl)O3)cc2)CC1` (centres unmarked) [ketoconazole], which “effect on buspirone metabolism” value (CYP3A4) is on record?
Its value is “No effect”.

With `O=C1CC2(CCCC2)CC(=O)N1CCCCN1CCN(c2ncccn2)CC1` [Buspirone] as the compound, how does the “variation of maximum plasma concentration between individuals” value [1] read?
The value was “up to 10 fold”.

And the “inhibition of firing of dorsal raphe neurons” value (dorsal raphe neurons [2])?
The value was “potently inhibits”.

And the concentration at 2 h ([3]; human, blood, po)?
Its concentration at 2 h is < 1 ng/mL.

And the safety and tolerability ([3]; multiple oral doses, five dose levels 5-30 mg BID, healthy adults, 25 days)?
Its safety and tolerability is “safe and generally well tolerated”.

What about the “mean blood level concentration of buspirone” value ([3]; oral buspirone BID, at the higher doses, FIG. 3) of the same compound?
Its value is 1 to 2 ng/mL.

What about the “ID50, dose predicted to reduce the number of ultrasonic calls by 50%” value (rat pups) of the same compound?
The value was 0.10 mg/kg.

What does the source list for `O=C1CC2(CCCC2)CC(=O)N1CCCCN1CCN(c2ncc(O)cn2)CC1` [5-OH-buspirone (BMY 14131)]?
IC50 (human 5-HT1A receptor; [6]): 928 nM; Ki (human 5-HT1A receptor; [7]): 464 nM

With `c1cnc(N2CCNCC2)nc1` [1-PP, 1-(2-pyrimidinyl)piperazine] as the compound, how does the “inhibition of dorsal raphe neuronal firing” value (dorsal raphe neurons [4]) read?
The value was “weak inhibition”.

And the IC50 (human 5-HT1A receptor)?
The IC50 was > 1000 nM.

What about the “binding / affinity at the 5-HT1A receptor” value (human 5-HT1A receptor) of the same compound?
Its value is “does not demonstrate binding”.

For `O=C1CC2(CCC(O)C2)CC(=O)N1CCCCN1CCN(c2ncccn2)CC1` (centres unmarked) [3-OH-buspirone (BMY 14295)], which IC50 (human 5-HT1A receptor; [6]) is on record?
Its IC50 is 652 nM.

And the Ki (human 5-HT1A receptor; [7])?
The Ki was 326 nM.

Which results are given for `O=C1CC2(CCCC2)C(O)C(=O)N1CCCCN1CCN(c2ncccn2)CC1` (centres unmarked) [BMY 28674, 6-hydroxy-8-[4-[4-(2-pyrimidinyl)-piperazinyl]-butyl]-8-azaspiro[4.5]-7,9-dione]?
IC50 (human 5-HT1A receptor; [6]): 114 nM; Ki (human 5-HT1A receptor; [7]): 57 nM; antianxiety response in the Vogel test [5]: did not elicit an antianxiety response; blood concentration of BMY 28674 relative to 1-PP ([3]; after oral buspirone, human subjects): several-fold greater; also recorded: several-fold higher; ID50, dose predicted to reduce the number of ultrasonic calls by 50% (rat pups): 0.13 mg/kg; ID50 dose estimated to reduce locomotor activity (rat pups; grid cell crossings): 0.41 mg/kg
